Measurements as given in patent US20170008888A1 (KYORIN PHARMACEUTICAL CO., LTD., priority 2014, published 2017).

Key:
ERK5 = molecular target: T1, ERK5 (Homo sapiens, UniProt Q13164); assay: Probe-based (AX9989 acyl phosphate ATP probe) kinase profiling in Jurkat lysate: ERK5; assay type: binding; conditions: for IC50: calculated from percent inhibition and screening concentration, Jurkat lysate, AX9989 probe; for inhibition at 1 µM: screening concentration 1 μM; for inhibition at 1 µM / inhibition at 10 µM: read-out: ERK5 Inhibition % at indicated screening concentration; for inhibition at 10 µM: screening concentration 10 μM
T1 construct: screened for activity against several kinases in Jurkat cells; endogenous in cells; host or cells: Jurkat cell lysate
T1 sequence (Q13164 whole entry): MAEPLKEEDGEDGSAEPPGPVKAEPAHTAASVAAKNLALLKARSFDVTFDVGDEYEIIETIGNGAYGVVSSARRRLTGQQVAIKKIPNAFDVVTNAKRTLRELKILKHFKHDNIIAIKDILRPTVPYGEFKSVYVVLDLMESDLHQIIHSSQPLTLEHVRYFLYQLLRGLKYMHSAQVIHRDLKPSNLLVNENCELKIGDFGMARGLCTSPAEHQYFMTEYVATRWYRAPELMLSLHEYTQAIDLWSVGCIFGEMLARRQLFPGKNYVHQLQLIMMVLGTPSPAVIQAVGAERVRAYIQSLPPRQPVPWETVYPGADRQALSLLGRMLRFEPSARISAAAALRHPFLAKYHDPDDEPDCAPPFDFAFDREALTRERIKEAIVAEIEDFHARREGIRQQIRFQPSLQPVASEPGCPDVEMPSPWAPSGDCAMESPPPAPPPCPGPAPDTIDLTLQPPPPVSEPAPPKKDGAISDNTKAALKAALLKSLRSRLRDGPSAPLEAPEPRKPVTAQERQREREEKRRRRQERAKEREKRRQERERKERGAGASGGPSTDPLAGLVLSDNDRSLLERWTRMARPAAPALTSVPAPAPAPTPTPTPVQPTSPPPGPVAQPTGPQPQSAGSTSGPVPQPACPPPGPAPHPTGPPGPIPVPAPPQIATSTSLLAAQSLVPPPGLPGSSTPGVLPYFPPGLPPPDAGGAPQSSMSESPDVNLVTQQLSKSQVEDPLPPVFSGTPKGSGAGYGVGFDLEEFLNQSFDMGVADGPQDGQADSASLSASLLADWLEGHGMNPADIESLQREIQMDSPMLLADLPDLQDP
Procedure, shortened: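 Gel-filtered Jurkat lysate (5 mg/ml, 20 mM MnCl2) preincubated 15 min at room temperature with compound, then labelled with 5 μM AX9989 acyl phosphate ATP probe. Probe-labelled ERK5 active-site peptides quantified by LC/MS after trypsin digestion and streptavidin capture; IC50 calculated from percent inhibition at the screening concentration.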

AurA = molecular target: T2, AurA (Homo sapiens, UniProt O14965); assay: Probe-based (AX9989) kinase profiling in Jurkat lysate: AurA; assay type: binding; conditions: read-out: AurA Inhibition % at indicated screening concentration; for inhibition at 1 µM: screening concentration 1 μM; for inhibition at 10 µM: screening concentration 10 μM
T2 construct: screened for activity against several kinases in Jurkat cells; endogenous in cells; host or cells: Jurkat cell lysate
T2 sequence (O14965 1-403): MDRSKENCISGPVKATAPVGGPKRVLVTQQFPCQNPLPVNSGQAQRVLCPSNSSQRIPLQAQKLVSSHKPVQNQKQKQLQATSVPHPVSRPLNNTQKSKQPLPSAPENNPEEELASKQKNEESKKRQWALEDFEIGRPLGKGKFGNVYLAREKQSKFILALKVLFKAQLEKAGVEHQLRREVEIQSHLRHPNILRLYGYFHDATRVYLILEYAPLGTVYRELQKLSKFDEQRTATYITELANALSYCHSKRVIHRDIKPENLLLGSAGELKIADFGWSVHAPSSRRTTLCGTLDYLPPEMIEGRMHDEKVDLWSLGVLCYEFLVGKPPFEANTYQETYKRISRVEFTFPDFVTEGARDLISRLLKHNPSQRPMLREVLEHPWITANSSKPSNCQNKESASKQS
Procedure, shortened: (§1)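 Compounds were pre-incubated for 15 min at room temperature with gel-filtered Jurkat cell lysate supplemented with 20 mM MnCl2, after which the acyl phosphate ATP probe AX9989 was added at 5 μM final. Labeled active-site peptides were enriched after tryptic digestion and measured by LC/MS, with percent inhibition taken relative to samples without compound.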

AurB or AurC = assay: Probe-based (AX9989) kinase profiling in Jurkat lysate: AurB or AurC; assay type: binding
Procedure, shortened: as §1

JAK1 = molecular target: T3, JAK1 (Homo sapiens, UniProt P23458); assay: Probe-based (AX9989) kinase profiling in Jurkat lysate: JAK1; assay type: binding; conditions: read-out: JAK1 Inhibition % at indicated screening concentration; for inhibition at 1 µM: screening concentration 1 μM; for inhibition at 10 µM: screening concentration 10 μM
T3 construct: screened for activity against several kinases in Jurkat cells; endogenous in cells; host or cells: Jurkat cell lysate
T3 sequence (P23458 whole entry): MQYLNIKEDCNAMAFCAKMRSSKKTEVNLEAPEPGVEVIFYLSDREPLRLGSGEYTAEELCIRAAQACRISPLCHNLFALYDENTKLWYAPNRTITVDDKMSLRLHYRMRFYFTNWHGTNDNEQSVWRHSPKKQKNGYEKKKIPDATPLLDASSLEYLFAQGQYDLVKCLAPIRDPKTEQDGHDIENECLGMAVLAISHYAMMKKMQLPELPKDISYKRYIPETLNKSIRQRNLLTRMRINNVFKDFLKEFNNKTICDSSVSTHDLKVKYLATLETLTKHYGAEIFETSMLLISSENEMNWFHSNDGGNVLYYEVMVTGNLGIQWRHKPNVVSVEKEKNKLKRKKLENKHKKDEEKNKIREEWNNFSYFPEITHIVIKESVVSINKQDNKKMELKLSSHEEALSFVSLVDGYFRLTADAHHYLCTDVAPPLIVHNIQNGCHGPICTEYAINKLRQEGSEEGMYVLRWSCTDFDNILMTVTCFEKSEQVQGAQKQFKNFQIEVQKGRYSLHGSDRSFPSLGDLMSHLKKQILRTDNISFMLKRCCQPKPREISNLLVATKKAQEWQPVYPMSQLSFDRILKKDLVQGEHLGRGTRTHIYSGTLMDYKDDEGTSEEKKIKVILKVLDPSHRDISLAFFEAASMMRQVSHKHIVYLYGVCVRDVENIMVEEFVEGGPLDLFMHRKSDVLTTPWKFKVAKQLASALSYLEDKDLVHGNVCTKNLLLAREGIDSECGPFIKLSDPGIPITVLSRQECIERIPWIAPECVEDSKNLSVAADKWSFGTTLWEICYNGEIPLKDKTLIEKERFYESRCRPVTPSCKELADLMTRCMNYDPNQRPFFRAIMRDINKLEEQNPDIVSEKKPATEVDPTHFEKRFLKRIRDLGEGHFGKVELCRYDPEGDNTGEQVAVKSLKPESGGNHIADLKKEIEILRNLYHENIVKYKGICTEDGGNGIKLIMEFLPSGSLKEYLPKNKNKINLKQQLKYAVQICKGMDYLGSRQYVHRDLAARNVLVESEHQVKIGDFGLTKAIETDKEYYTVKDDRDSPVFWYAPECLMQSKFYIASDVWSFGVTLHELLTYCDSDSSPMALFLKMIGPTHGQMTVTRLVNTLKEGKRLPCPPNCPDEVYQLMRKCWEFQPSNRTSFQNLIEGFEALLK
Procedure, shortened: as §1

ACK = molecular target: T4, ACK (Homo sapiens, UniProt Q07912); assay: Probe-based (AX9989) kinase profiling in Jurkat lysate: ACK; assay type: binding; conditions: read-out: ACK Inhibition % at indicated screening concentration; for inhibition at 1 µM: screening concentration 1 μM; for inhibition at 10 µM: screening concentration 10 μM
T4 construct: screened for activity against several kinases in Jurkat cells; endogenous in cells; host or cells: Jurkat cell lysate
T4 sequence (Q07912 whole entry): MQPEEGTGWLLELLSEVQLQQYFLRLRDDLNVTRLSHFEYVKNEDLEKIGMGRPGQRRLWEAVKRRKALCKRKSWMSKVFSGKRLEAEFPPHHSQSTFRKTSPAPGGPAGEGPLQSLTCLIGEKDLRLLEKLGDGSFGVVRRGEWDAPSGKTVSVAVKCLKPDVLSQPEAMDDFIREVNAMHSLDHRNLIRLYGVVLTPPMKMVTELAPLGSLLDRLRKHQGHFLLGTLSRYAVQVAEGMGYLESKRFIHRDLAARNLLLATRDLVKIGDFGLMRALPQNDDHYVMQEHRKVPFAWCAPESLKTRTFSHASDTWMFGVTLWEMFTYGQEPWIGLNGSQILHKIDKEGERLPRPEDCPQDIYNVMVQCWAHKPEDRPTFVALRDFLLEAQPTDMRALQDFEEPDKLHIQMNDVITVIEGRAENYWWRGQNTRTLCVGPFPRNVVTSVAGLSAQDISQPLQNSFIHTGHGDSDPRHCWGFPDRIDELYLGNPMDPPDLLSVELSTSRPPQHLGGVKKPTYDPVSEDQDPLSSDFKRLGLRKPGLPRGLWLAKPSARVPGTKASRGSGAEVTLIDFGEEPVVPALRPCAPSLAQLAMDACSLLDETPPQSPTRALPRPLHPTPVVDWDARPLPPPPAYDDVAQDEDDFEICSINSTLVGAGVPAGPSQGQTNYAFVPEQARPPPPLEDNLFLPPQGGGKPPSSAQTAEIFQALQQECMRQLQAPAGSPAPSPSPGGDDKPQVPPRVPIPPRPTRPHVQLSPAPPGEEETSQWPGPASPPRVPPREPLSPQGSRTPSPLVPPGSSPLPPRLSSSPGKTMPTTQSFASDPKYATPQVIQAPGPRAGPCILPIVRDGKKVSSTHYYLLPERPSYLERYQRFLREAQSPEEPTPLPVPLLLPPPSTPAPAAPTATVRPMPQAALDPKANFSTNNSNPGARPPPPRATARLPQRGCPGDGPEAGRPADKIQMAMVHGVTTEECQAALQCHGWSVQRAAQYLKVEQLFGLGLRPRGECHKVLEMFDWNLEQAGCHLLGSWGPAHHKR
Procedure, shortened: as §1

[1] = molecular target: T5, recombinant human ERK5 catalytic domain (Homo sapiens, UniProt Q13164); assay: Recombinant human ERK5 radiometric (HotSpot) assay; assay type: biochemical; conditions: 10 μM ATP, 20 μM myelin basic protein substrate; read-out: rhERK5 IC50
T5 construct: Recombinant human ERK5 catalytic domain radiometric assays; purchased Reaction Biology, Corp (Malvern, Pa.), which ran the assay as a service
T5 sequence (Q13164 55-347 limits assumed): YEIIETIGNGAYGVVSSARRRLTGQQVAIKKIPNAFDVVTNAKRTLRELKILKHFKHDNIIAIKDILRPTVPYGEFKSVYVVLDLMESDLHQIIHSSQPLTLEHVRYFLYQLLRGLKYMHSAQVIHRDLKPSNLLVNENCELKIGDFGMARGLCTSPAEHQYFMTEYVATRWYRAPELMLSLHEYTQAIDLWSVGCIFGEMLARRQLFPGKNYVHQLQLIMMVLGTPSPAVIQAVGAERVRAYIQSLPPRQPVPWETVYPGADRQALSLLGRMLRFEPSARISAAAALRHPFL
Procedure, shortened: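 Radiometric filter-binding HotSpot assay using [γ-33P]-ATP tracer with 10 μM cold ATP and 20 μM myelin basic protein substrate. Compounds tested in 10-point, ⅓-fold serial dilution from 20 μM; […].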

human PBMCs = assay: Human PBMC TNF-α response to endotoxin (ELISA); assay type: cell-based; conditions: 0.1 μg/ml LPS 16 h, read-out: EC50 for the inhibition of the human PBMC TNF-α response to endotoxin, ave. ± S.D.
Procedure, shortened: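 PBMCs at 2e6 cells/ml in RPMI 1640 with 10% charcoal-dextran-treated FBS were pre-treated 1 h at 37 °C with compound (4-point 1:5 dilution from 10 μM). Stimulation with 0.1 μg/ml E. coli 0111:B4 LPS for 16 h; TNF-α measured by ELISA (A450) in 25-fold diluted supernatant.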

Row | IC50 (ERK5) [nM] | inhibition at 1 µM (ERK5) [%] | inhibition at 1 µM (AurA) [%] | AurB or AurC Inhibition % at indicated screening concentration (AurB or AurC; screening concentration 1 μM) | inhibition at 1 µM (JAK1) [%] | inhibition at 1 µM (ACK) [%] | IC50 [1] [nM] | inhibition at 10 µM (ERK5) [%] | inhibition at 10 µM (AurA) [%] | AurB or AurC Inhibition % at indicated screening concentration (AurB or AurC; screening concentration 10 μM) | inhibition at 10 µM (JAK1) [%] | inhibition at 10 µM (ACK) [%] | Compound | EC50 (human PBMCs) [nM]
1 | ≤ 50 | > 90 | ≤ 35 | E (E is ≦35%) | ≤ 35 | ≤ 35 | 20 to 50 |  |  |  |  |  | CCOc1cc(C(=O)N2CCN(CCN3CCOCC3)CC2)ccc1Nc1cc2c(cn1)N(C)C(=O)c1ccccc1N2C [Compound T15] | 800 ± 270
2 | ≤ 50 | > 90 | ≤ 35 | E (E is ≦35%) | ≤ 35 | ≤ 35 | 20 to 50 |  |  |  |  |  | CCOc1cc(C(=O)N2CCN(C(C)=O)CC2)ccc1Nc1cc2c(cn1)N(C)C(=O)c1ccccc1N2C [Compound T18] | 820 ± 100
3 | ≤ 50 | > 90 | ≤ 35 | E (E is ≦35%) | ≤ 35 | ≤ 35 | 20 to 50 |  |  |  |  |  | CCOc1cc(C(=O)N2CC[C@@H](N3CCN(C)CC3)C2)ccc1Nc1cc2c(cn1)N(C)C(=O)c1ccccc1N2C [Compound T20] | 460 ± 140
4 | ≤ 50 | > 90 | ≤ 35 | E (E is ≦35%) | ≤ 35 | ≤ 35 | 50 to 200 |  |  |  |  |  | CCOc1cc(C(=O)N2CC[C@H](C#N)C2)ccc1Nc1cc2c(cn1)N(C)C(=O)c1ccccc1N2C [Compound T22] | 820 ± 140
5 | ≤ 50 | > 90 | ≤ 35 | E (E is ≦35%) | ≤ 35 | ≤ 35 | < 20 |  |  |  |  |  | CCOc1cc(C(=O)N2CCC(N3CCCN(C)CC3)CC2)ccc1Nc1cc2c(cn1)N(C)C(=O)c1ccccc1N2C [Compound T31] | 490
6 | ≤ 50 | > 90 | ≤ 35 | E (E is ≦35%) | ≤ 35 | ≤ 35 | < 20 |  |  |  |  |  | CN1CCN(C2CCN(C(=O)c3ccc(Nc4cc5c(cn4)N(C)C(=O)c4ccccc4N5C)c(OCCF)c3)CC2)CC1 [Compound T34] | 490 ± 40
7 | 50 to 100 | > 90 | ≤ 35 | E (E is ≦35%) | ≤ 35 | ≤ 35 | 50 to 200 |  |  |  |  |  | CCOc1cc(C(=O)N2CCC(NC3CCN(C)CC3)C2)ccc1Nc1cc2c(cn1)N(C)C(=O)c1ccccc1N2C (centres unmarked) [Compound T42] | 680 ± 450
8 | > 500 |  |  |  |  |  | > 200 | 50 to 75 | ≤ 35 | E (E is ≦35%) | ≤ 35 | ≤ 35 | CCOc1cc(C(=O)N2CCC(N3CCN(C)CC3)CC2)ccc1Nc1cc2c(cn1)N(C)C(C(F)(F)F)c1ccccc1N2C (centres unmarked) [Compound T47] | 3970
9 | 101 to 500 |  |  |  |  |  | 50 to 200 | > 90 | ≤ 35 | E (E is ≦35%) | ≤ 35 | ≤ 35 | CC(C)Oc1cc(C(=O)N2CCC[C@H](O)C2)ccc1Nc1cc2c(cn1)N(C)C(=O)c1ccccc1N2C [Compound T48] | 740
10 | 50 to 100 | > 90 | ≤ 35 | E (E is ≦35%) | ≤ 35 | ≤ 35 | 50 to 200 |  |  |  |  |  | CC(C)Oc1cc(C(=O)N2CCN(C3CCN(C)CC3)CC2)ccc1Nc1cc2c(cn1)N(C)C(=O)c1ccccc1N2C [Compound T49] | 300 ± 120
11 | 101 to 500 | 75 to 90 | ≤ 35 | E (E is ≦35%) | ≤ 35 | ≤ 35 | 50 to 200 |  |  |  |  |  | CC(C)Oc1cc(C(=O)N2CC[C@@H](NCCF)C2)ccc1Nc1cc2c(cn1)N(C)C(=O)c1ccccc1N2C [Compound T50] | 630
12 | > 500 |  |  |  |  |  | > 200 | 50 to 75 | ≤ 35 | E (E is ≦35%) | ≤ 35 | ≤ 35 | CCOc1cc(C(=O)N2CCC(NCCF)C2)ccc1Nc1cc2c(cn1)N(C)C(C(F)(F)F)c1ccccc1N2C (centres unmarked) [Compound T54] | 7140
13 | ≤ 50 | > 90 | ≤ 35 | E (E is ≦35%) | ≤ 35 | ≤ 35 | < 20 |  |  |  |  |  | CCOc1cc(C(=O)N2CCN(c3cccnc3)CC2)ccc1Nc1cc2c(cn1)N(C)C(=O)c1occc1N2C [Compound T56] | 300
14 | 101 to 500 | 75 to 90 | ≤ 35 | E (E is ≦35%) | ≤ 35 | ≤ 35 | > 200 |  |  |  |  |  | CCOc1cc(C(=O)N[C@H]2CC[C@H](O)CC2)ccc1Nc1cc2c(cn1)N(C)C(=O)c1ccccc1N2C [Compound T62] | 490 ± 100
15 | 101 to 500 | 75 to 90 | ≤ 35 | E (E is ≦35%) | ≤ 35 | ≤ 35 | > 200 |  |  |  |  |  | CCOc1cc(C(=O)N[C@H]2CC[C@@H](O)CC2)ccc1Nc1cc2c(cn1)N(C)C(=O)c1ccccc1N2C [Compound T63] | 750
16 | 101 to 500 |  |  |  |  |  | 50 to 200 | > 90 | ≤ 35 | D (D is >35% to ≦50%) | ≤ 35 | ≤ 35 | CN1C(=O)c2c(F)cccc2Oc2cc(N[C@H]3CC[C@H](O)CC3)ncc21 [Compound T92] | 440 ± 290
17 | > 500 |  |  |  |  |  | > 200 | > 90 | ≤ 35 | E (E is ≦35%) | ≤ 35 | ≤ 35 | COc1cccc2c1Oc1cc(N[C@H]3CC[C@H](O)CC3)ncc1N(C)C2=O [Compound T95] | 1380 ± 1710
18 | > 500 |  |  |  |  |  | > 200 | > 90 | ≤ 35 | E (E is ≦35%) | ≤ 35 | ≤ 35 | CN1C(=O)c2c(F)ccc(F)c2Oc2cc(N[C@H]3CC[C@H](O)CC3)ncc21 [Compound T97] | 430 ± 450
19 | 101 to 500 |  |  |  |  |  | 20 to 50 | > 90 | ≤ 35 | E (E is ≦35%) | ≤ 35 | ≤ 35 | CCOc1cc(C(=O)N2CCN(C3CCN(C)CC3)CC2)ccc1Nc1cc2c(cn1)N(C)C(=O)c1ccccc1O2 [Compound T98] | 810 ± 920
